Assay results published in PubChem BioAssay (NCI).
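Step 1: Grow cells in 96-well plates. Step 2: Expose to compound for 48 hours at 5 concentrations. Step 3: Interpolate endpoints linearly; if unreached, use highest concentration. TGI: total growth inhibition.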

Legend:
Experiment in all cases: DTP human tumour cell line panel, 48 h
[1] = system: BT-549 breast
[2] = system: CAKI-1 renal
[3] = system: CCRF-CEM leukemia
[4] = system: COLO 205 colon
[5] = system: DU-145 prostate
[6] = system: HCC-2998 colon
[7] = system: HCT-116 colon
[8] = system: HCT-15 colon
[9] = system: HL-60(TB) leukemia
[10] = system: HOP-62 NSCLC
[11] = system: HOP-92 NSCLC
[12] = system: HS 578T breast
[13] = system: HT29 colon
[14] = system: IGROV1 ovarian
[15] = system: K-562 leukemia
[16] = system: KM12 colon
[17] = system: LOX IMVI melanoma
[18] = system: M14 melanoma
[19] = system: MALME-3M melanoma
[20] = system: MCF7 breast
[21] = system: MDA-MB-231 breast
[22] = system: MDA-MB-435
[23] = system: MDA-N
[24] = system: MOLT-4 leukemia
[25] = system: NCI-H226 lung
[26] = system: NCI-H23 lung
[27] = system: NCI-H460 lung
[28] = system: NCI/ADR-RES ovarian
[29] = system: OVCAR-3 ovarian
[30] = system: OVCAR-4 ovarian
[31] = system: OVCAR-5 ovarian
[32] = system: OVCAR-8 ovarian
[33] = system: PC-3 prostate
[34] = system: RPMI-8226 leukemia
[35] = system: RXF 393 renal
[36] = system: SF-295 CNS
[37] = system: SK-MEL-2 melanoma
[38] = system: SK-MEL-28 melanoma
[39] = system: SK-MEL-5 melanoma
[40] = system: SK-OV-3 ovarian
[41] = system: SN12C renal
[42] = system: SNB-75 CNS
[43] = system: SR leukemia
[44] = system: SW-620 colon
[45] = system: T-47D breast
[46] = system: TK-10 renal
[47] = system: U251 CNS
[48] = system: UACC-257 melanoma
[49] = system: UACC-62 melanoma
[50] = system: UO-31 renal

C[C@@H]1CC[C@H]2[C@H]1[C@H]1[C@@H](CC[C@]2(C)N=C=S)C1(C)C
TGI [1]: 39.1 µM
TGI [2]: 92.4 µM
TGI [3]: 30.9 µM
TGI [4]: 33.3 µM
TGI [5]: 49.6 µM
TGI [6]: 83.4 µM
TGI [7]: 31.7 µM
TGI [8]: 64.6 µM
TGI [9]: 54.3 µM
TGI [10]: > 100 µM
TGI [11]: 84.7 µM
TGI [12]: > 100 µM
TGI [13]: 52.7 µM
TGI [14]: > 100 µM
TGI [15]: 35.7 µM
TGI [16]: 40 µM
TGI [17]: > 100 µM
TGI [18]: 78.1 µM
TGI [19]: 52.8 µM
TGI [20]: 34 µM
TGI [21]: 52.7 µM
TGI [22]: 96.6 µM
TGI [23]: 23.4 µM
TGI [24]: 32.5 µM
TGI [25]: 38.8 µM
TGI [26]: 94.3 µM
TGI [27]: 47.3 µM
TGI [28]: 43.9 µM
TGI [29]: 42.9 µM
TGI [30]: > 100 µM
TGI [31]: > 100 µM
TGI [32]: > 100 µM
TGI [33]: > 100 µM
TGI [34]: 43.4 µM
TGI [35]: 30.5 µM
TGI [36]: 46.9 µM
TGI [37]: 43.9 µM
TGI [38]: 49.7 µM
TGI [39]: 31.8 µM
TGI [40]: > 100 µM
TGI [41]: 44.7 µM
TGI [42]: > 100 µM
TGI [43]: 47 µM
TGI [44]: 36 µM
TGI [45]: > 100 µM
TGI [46]: > 100 µM
TGI [47]: 30.5 µM
TGI [48]: 67.4 µM
TGI [49]: 42.6 µM
TGI [50]: > 100 µM
